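How tested: cells in 96-well plates exposed to compound for 48 hours at five concentrations. GI50 = concentration required for 50% inhibition of growth.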 Active and inactive are the calls of the source. Rule as the data show it: active = GI50 up to about 1.1 µM and inactive = higher.

Holding throughout (assay): NCI tumour cell line growth inhibition, 48 h
Test [1] has as its system Hs-578T.
Test [2] deals with NCI/ADR-RES.
Test [3] concerns A498.
For test [4], the system named is K562.
Test [5] relates to SF-268.
The test system of test [6] is SR.
Test [7] concerns CCRF-CEM.
Test [8] has as its system SK-MEL-2.
Test [9] deals with IGROV-1.
Test [10] relates to OVCAR-8.
For test [11], the system named is MDA-MB-435.
In test [12] the test system is PC-3.
Test [13] has as its system HL-60.
Test [14] deals with MDA-MB-231.
For test [15], the system named is COLO 205.
Test [16] has as its system HCT-15.
For test [17], the system named is HOP-92.
Test [18] concerns HCT-116.
The subject of test [19] is NCI-H23.
The subject of test [20] is RXF 393.

As for `CC1NC(=O)C2Cc3ccc(O)c(c3)Oc3ccc(cc3)C(O)C(C(=O)N2C)N(C)C(=O)C(C)NC(=O)C(Cc2ccc(O)cc2)N(C)C(=O)C(C)NC1=O` (stereo unspecified), the GI50 in [1] was 5.09 µM (inactive); in test [2], > 100 µM (inactive); in [3], > 100 µM (inactive); in test [4], > 100 µM (inactive); in test [5], 4.03 µM (inactive); in test [6] it was 10.7 µM (inactive). In addition, the GI50 in test [7] was 9.71 µM (inactive); in [8] it was 8.41 µM (inactive); in test [9] it was 4.85 µM (inactive); in [10] it was 24.7 µM (inactive); in test [11], 18.8 µM (inactive); in [12], 23.8 µM (inactive). Also, the GI50 in test [13] is 13.9 µM (inactive); in test [14] it was 11.1 µM (inactive); in test [15] it was 79.6 µM (inactive); in [16], more than 100 µM; in [17] it was 15.8 µM (inactive); in test [18], 9.64 µM (inactive). Moreover, the GI50 in [19] was 29.2 µM (inactive).

As for `CCOC(=O)c1nc2cc(F)cc(F)c2[nH]c1=O`, the GI50 in [1], in [2], in test [3], in test [4], in [5] and in [6] was > 100 µM (inactive) each time. Further, the GI50 in test [7], in test [8], in test [9], in test [10], in test [11] and in test [12] was > 100 µM (inactive) in each case. Also, the GI50 is > 100 µM (inactive) in test [13]; > 100 µM (inactive) in test [14]; > 100 µM (inactive) in test [15]; more than 100 µM in [16]; > 100 µM (inactive) in test [17]; > 100 µM (inactive) in test [18]. The GI50 in test [19] is > 100 µM (inactive).

Consider `COc1cc(OC)c2nc(C)c(CCCl)c(Cl)c2c1`, for which the GI50 in test [1], in test [2], in [20], in test [3], in test [4] and in test [5] was > 100 µM (inactive) throughout. The GI50 in test [6], in test [7], in test [8], in [9], in test [10] and in [11] was > 100 µM (inactive) in each case. For the same compound, the GI50 was > 100 µM (inactive) in test [12]; > 100 µM (inactive) in test [13]; > 100 µM (inactive) in [14]; > 100 µM (inactive) in [15]; more than 100 µM in test [16]; > 100 µM (inactive) in [18]. In addition, in [19], the GI50 was > 100 µM (inactive).

Turning to `COc1cc2nc(-c3cccs3)nc(N3CCN(c4ccccc4)CC3)c2cc1OC`, the GI50 in [1], in test [2], in test [3], in test [4], in [5] and in test [6] was > 100 µM (inactive) each time. The GI50 in test [8], in test [9], in [10], in test [11], in test [12] and in test [13] was > 100 µM (inactive) each time. The GI50 in [14] was > 100 µM (inactive); in test [15], > 100 µM (inactive); in test [16], more than 100 µM; in test [17] it was > 100 µM (inactive); in [18] it was > 100 µM (inactive); in test [19], > 100 µM (inactive).

`CC(=O)c1c(=O)n(-c2ccc(C)cc2)c(O)c2c(N)n[nH]c12`: the GI50 in test [1], in test [2], in [20], in test [3], in [4] and in [5] was > 100 µM (inactive) in each case. The GI50 in [6], in [7], in test [8], in test [9], in test [10] and in [11] was > 100 µM (inactive) throughout. The GI50 in test [12] was > 100 µM (inactive); in test [13], > 100 µM (inactive); in test [14], > 100 µM (inactive); in test [15], > 100 µM (inactive); in [16], more than 100 µM; in test [18] it was > 100 µM (inactive). The GI50 in [19] is > 100 µM (inactive).

For `Nc1c2c(nc3ccccc13)CCCc1ccccc1-2`, the GI50 was 22.6 µM (inactive) in test [1]; 20.3 µM (inactive) in [2]; 11.4 µM (inactive) in test [20]; 8.43 µM (inactive) in test [3]; 5.7 µM (inactive) in test [4]; 16.9 µM (inactive) in test [5]. Further, the GI50 in test [6] was 7.35 µM (inactive); in test [8] it was 13.4 µM (inactive); in [9], 9.46 µM (inactive); in test [10], 14.1 µM (inactive); in [11] it was 11.3 µM (inactive); in [12] it was 14.3 µM (inactive). Further, the GI50 in test [13] is 5.9 µM (inactive); in test [14], 5.38 µM (inactive); in test [15], 8.32 µM (inactive); in [16], 13.8 µM; in [17] it was 10.1 µM (inactive); in test [18] it was 4.78 µM (inactive). Besides, the GI50 in test [19] was 16.3 µM (inactive).

Take `Cn1c(=O)c2[nH]c(C3CC(=O)CC(c4nc5c([nH]4)c(=O)n(C)c(=O)n5C)N3)nc2n(C)c1=O` (stereo unspecified): the GI50 was > 100 µM (inactive) in test [1]; > 100 µM (inactive) in test [2]; > 100 µM (inactive) in test [20]; > 100 µM (inactive) in test [3]; 72.8 µM (inactive) in test [4]; > 100 µM (inactive) in test [5]. The GI50 in test [6] was 95.1 µM (inactive); in test [7] it was 38.3 µM (inactive); in [8] it was > 100 µM (inactive); in [9] it was > 100 µM (inactive); in test [10], > 100 µM (inactive); in [11], > 100 µM (inactive). Further, the GI50 in [12] is > 100 µM (inactive); in [13], > 100 µM (inactive); in [14], > 100 µM (inactive); in test [15] it was 97.7 µM (inactive); in [16] it was more than 100 µM; in [18], > 100 µM (inactive). Besides, the GI50 in test [19] is > 100 µM (inactive).

Regarding `CN(C)c1n/c(=N/Cc2ccccc2)ss1`, the GI50 was > 10 µM (inactive) in [1]; > 10 µM (inactive) in test [2]; > 10 µM (inactive) in test [20]; > 10 µM (inactive) in test [3]; 3.21 µM (inactive) in test [4]; > 10 µM (inactive) in [5]. Besides, the GI50 in test [6] was 0.587 µM (active); in test [7], 0.646 µM (active); in test [9] it was > 10 µM (inactive); in test [10], > 10 µM (inactive); in [11] it was > 10 µM (inactive); in [12], > 10 µM (inactive). The GI50 in [13] is > 5.2 µM (inactive); in test [14], > 10 µM (inactive); in [15] it was > 10 µM (inactive); in test [16] it was more than 10 µM; in [17], > 10 µM (inactive); in test [18], > 10 µM (inactive). Besides, the GI50 in [19] is > 10 µM (inactive).
